Laboratory results from patent publication US20140213513A1 (Sanofi, priority 2012, published 2014).
*1 amine or outer side, *2 acyl side, *3 side chain or, on linkers, in order; H or OH if unused. Where a SMILES comes first, the peptide text is derived from it. Side-chain parts run from the residue outwards. [ ]: non-standard residue; d: D form. The star is where a group is joined. γGlu = O=C(O)[C@H](CCC(=O)[*:2])N[*:1]; Palmitoyl = CCCCCCCCCCCCCCCC(=O)*; Aib = CC(C)(N)C(=O)O

Experiments:
Type in all cases: cell-based
Conditions in all cases: Table 7; cAMP formation
[1] = molecular target: T1, human GLP-1 receptor (hGLP-1 R) (Homo sapiens, UniProt P43220); test: cAMP response of HEK-293 cells stably expressing human GLP-1 receptor (HTRF)
T1 construct: expressed in transfected cells
Procedure, shortened: (§1)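 Stably transfected HEK-293 cells, accutase-harvested; assay buffer 1×HBSS/20 mM HEPES/0.1% BSA/2 mM IBMX; 400000 cells/ml; compound 30 min, RT; cAMP by HTRF kit.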

[2] = molecular target: T2, human GIP receptor (hGIP R) (Homo sapiens, UniProt P48546); test: cAMP response of HEK-293 cells stably expressing human GIP receptor (HTRF)
T2 construct: expressed in transfected cells
T2 sequence (P48546 22-466): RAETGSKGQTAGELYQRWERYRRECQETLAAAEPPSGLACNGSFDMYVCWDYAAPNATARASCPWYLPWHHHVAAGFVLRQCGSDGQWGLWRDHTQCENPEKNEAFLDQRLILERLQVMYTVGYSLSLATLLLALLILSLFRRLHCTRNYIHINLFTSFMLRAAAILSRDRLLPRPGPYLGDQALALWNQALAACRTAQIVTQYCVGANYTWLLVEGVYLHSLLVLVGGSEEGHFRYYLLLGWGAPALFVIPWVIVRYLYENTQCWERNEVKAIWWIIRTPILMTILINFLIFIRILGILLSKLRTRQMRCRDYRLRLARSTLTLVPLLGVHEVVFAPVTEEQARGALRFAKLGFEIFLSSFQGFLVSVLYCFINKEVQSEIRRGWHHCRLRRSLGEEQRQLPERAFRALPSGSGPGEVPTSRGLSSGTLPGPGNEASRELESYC
Procedure, shortened: as §1

[3] = molecular target: T3, human glucagon receptor (hGLUC R) (Homo sapiens, UniProt P47871); test: cAMP response of HEK-293 cells stably expressing human glucagon receptor (HTRF)
T3 construct: expressed in transfected cells
Procedure, shortened: as §1

T3 sequence (P47871 26-477): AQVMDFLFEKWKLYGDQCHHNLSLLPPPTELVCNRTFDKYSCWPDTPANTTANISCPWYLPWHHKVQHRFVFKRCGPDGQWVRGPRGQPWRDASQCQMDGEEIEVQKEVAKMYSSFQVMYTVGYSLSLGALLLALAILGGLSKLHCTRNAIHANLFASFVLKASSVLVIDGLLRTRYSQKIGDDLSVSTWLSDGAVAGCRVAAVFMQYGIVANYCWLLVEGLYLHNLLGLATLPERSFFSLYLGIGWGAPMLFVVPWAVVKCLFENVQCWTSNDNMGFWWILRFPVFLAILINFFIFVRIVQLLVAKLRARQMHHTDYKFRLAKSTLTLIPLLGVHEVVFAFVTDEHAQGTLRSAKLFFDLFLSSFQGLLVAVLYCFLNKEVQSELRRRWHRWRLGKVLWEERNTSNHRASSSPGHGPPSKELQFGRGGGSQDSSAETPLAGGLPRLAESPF
T1 sequence (P43220 24-463): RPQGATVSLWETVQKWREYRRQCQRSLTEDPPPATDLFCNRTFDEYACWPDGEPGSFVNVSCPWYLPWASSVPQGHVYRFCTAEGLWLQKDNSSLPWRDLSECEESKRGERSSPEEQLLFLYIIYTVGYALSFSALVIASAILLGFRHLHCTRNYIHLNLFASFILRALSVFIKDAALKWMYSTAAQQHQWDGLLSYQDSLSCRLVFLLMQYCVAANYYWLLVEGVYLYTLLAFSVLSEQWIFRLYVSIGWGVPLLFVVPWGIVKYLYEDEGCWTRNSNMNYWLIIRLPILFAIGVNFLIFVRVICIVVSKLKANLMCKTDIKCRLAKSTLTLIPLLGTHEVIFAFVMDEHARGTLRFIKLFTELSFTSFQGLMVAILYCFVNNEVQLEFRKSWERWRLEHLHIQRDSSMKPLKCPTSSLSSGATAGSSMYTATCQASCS

SMILES	EC50 [1] [nM]	EC50 [2] [nM]	EC50 [3] [nM]
CCCCCCCCCCCCCCCC(=O)N[C@@H](CCC(=O)NCCCC[C@H](NC(=O)[C@H](CCC(N)=O)NC(=O)[C@@H](NC(=O)[C@H](CO)NC(=O)[C@H](CC(C)C)NC(=O)[C@H](CC(=O)O)NC(=O)[C@H](CO)NC(=O)[C@@H](NC(=O)[C@H](Cc1ccccc1)NC(=O)[C@@H](NC(=O)CNC(=O)[C@H](CCC(=O)O)NC(=O)C(C)(C)NC(=O)[C@@H](N)Cc1ccc(O)cc1)[C@@H](C)O)[C@@H](C)O)[C@@H](C)CC)C(=O)N[C@@H](CCC(=O)O)C(=O)N[C@@H](CCC(=O)O)C(=O)N[C@@H](CCC(N)=O)C(=O)N[C@@H](C)C(=O)N[C@@H](C)C(=O)N[C@@H](Cc1c[nH]cn1)C(=O)N[C@@H](CCC(=O)O)C(=O)N[C@@H](Cc1ccccc1)C(=O)N[C@H](C(=O)N[C@@H](CCC(=O)O)C(=O)N[C@@H](Cc1c[nH]c2ccccc12)C(=O)N[C@@H](CC(C)C)C(=O)N[C@@H](CCCCN)C(=O)N[C@@H](CCCNC(=N)N)C(=O)NC(C)(C)C(=O)NCC(=O)N1CCC[C@H]1C(=O)N[C@@H](CO)C(=O)N[C@@H](CO)C(=O)NCC(=O)N[C@@H](C)C(=O)N1CCC[C@H]1C(=O)N1CCC[C@H]1C(=O)N1CCC[C@H]1C(=O)N[C@@H](CO)C(N)=O)[C@@H](C)CC)C(=O)O [SEQ ID NO: 38, Y-Aib-E-G-T-F-T-S-D-L-S-I-Q-K(yE-x53)-E-E-Q-A-A-H-E-F-I-E-W-L-K-R-Aib-G-P-S-S-G-A-P-P-P-S-NH2]	0.009	0.0074	22.5
CCCCCCCCCCCCCCCC(=O)N[C@@H](CCC(=O)NCCCC[C@H](NC(=O)[C@H](CCC(N)=O)NC(=O)[C@@H](NC(=O)[C@H](CO)NC(=O)[C@H](CC(C)C)NC(=O)[C@H](CC(=O)O)NC(=O)[C@H](CO)NC(=O)[C@@H](NC(=O)[C@H](Cc1ccccc1)NC(=O)[C@@H](NC(=O)CNC(=O)[C@H](CCC(N)=O)NC(=O)C(C)(C)NC(=O)[C@@H](N)Cc1ccc(O)cc1)[C@@H](C)O)[C@@H](C)O)[C@@H](C)CC)C(=O)N[C@@H](CCC(=O)O)C(=O)N[C@@H](CCCCN)C(=O)N[C@@H](C)C(=O)N[C@@H](C)C(=O)N[C@@H](C)C(=O)NC(C)(C)C(=O)N[C@@H](CCC(=O)O)C(=O)N[C@@H](Cc1ccccc1)C(=O)N[C@H](C(=O)N[C@@H](CCC(=O)O)C(=O)N[C@@H](Cc1c[nH]c2ccccc12)C(=O)N[C@@H](CC(C)C)C(=O)N[C@@H](CCCCN)C(=O)N[C@@H](CC(N)=O)C(=O)N[C@H](C(=O)NCC(=O)N1CCC[C@H]1C(=O)N[C@@H](CO)C(=O)N[C@@H](CO)C(=O)NCC(=O)N[C@@H](C)C(=O)N1CCC[C@H]1C(=O)N1CCC[C@H]1C(=O)N1CCC[C@H]1C(=O)N[C@@H](CO)C(N)=O)[C@@H](C)O)[C@@H](C)CC)C(=O)O [SEQ ID NO: 12, Y-Aib-Q-G-T-F-T-S-D-L-S-I-Q-K(yE-x53)-E-K-A-A-A-Aib-EFIEWLKNTGPSSGAPPPSN H2] (H-Y[Aib]QGTFTSDLSIQK([γGlu-Palmitoyl])EKAAA[Aib]EFIEWLKNTGPSSGAPPPS-NH2)	0.0055	0.008	0.139
CCCCCCCCCCCCCCCC(=O)N[C@@H](CCC(=O)NCCCC[C@H](NC(=O)[C@H](CCC(N)=O)NC(=O)[C@H](CCCCN)NC(=O)[C@H](CO)NC(=O)[C@H](CC(C)C)NC(=O)[C@H](CC(=O)O)NC(=O)[C@H](CO)NC(=O)[C@@H](NC(=O)[C@H](Cc1ccccc1)NC(=O)[C@@H](NC(=O)CNC(=O)[C@H](Cc1c[nH]cn1)NC(=O)C(C)(C)NC(=O)[C@@H](N)Cc1ccc(O)cc1)[C@@H](C)O)[C@@H](C)O)C(=O)N[C@@H](CCC(=O)O)C(=O)N[C@@H](CCCCN)C(=O)N[C@@H](CCCNC(=N)N)C(=O)N[C@@H](C)C(=O)N[C@@H](C)C(=O)NC(C)(C)C(=O)N[C@@H](CCC(=O)O)C(=O)N[C@@H](Cc1ccccc1)C(=O)N[C@H](C(=O)N[C@@H](CCC(=O)O)C(=O)N[C@@H](Cc1c[nH]c2ccccc12)C(=O)N[C@@H](CC(C)C)C(=O)N[C@@H](CCCCN)C(=O)N[C@@H](CC(N)=O)C(=O)N[C@H](C(=O)NCC(=O)N1CCC[C@H]1C(=O)N[C@@H](CO)C(=O)N[C@@H](CO)C(=O)NCC(=O)N[C@@H](C)C(=O)N1CCC[C@H]1C(=O)N1CCC[C@H]1C(=O)N1CCC[C@H]1C(=O)N[C@@H](CO)C(N)=O)[C@@H](C)O)[C@@H](C)CC)C(=O)O [SEQ ID NO: 28, Y-Aib-H-G-T-F-T-S-D-L-S-K-Q-K(yE-x53)-E-K-R-A-A-Aib-E-F-I-E-W-L-K-N-T-G-P-S-S-G-A-P-P-P-S-NH2] (H-Y[Aib]HGTFTSDLSKQK([γGlu-Palmitoyl])EKRAA[Aib]EFIEWLKNTGPSSGAPPPS-NH2)	0.0583	0.0368	0.0048
CCCCCCCCCCCCCCCC(=O)NCCCC[C@H](NC(=O)[C@H](CCC(N)=O)NC(=O)[C@@H](NC(=O)[C@H](CO)NC(=O)[C@H](CC(C)C)NC(=O)[C@H](CC(=O)O)NC(=O)[C@H](CO)NC(=O)[C@@H](NC(=O)[C@H](Cc1ccccc1)NC(=O)[C@@H](NC(=O)CNC(=O)[C@H](CCC(N)=O)NC(=O)C(C)(C)NC(=O)[C@@H](N)Cc1ccc(O)cc1)[C@@H](C)O)[C@@H](C)O)[C@@H](C)CC)C(=O)N[C@@H](CCC(=O)O)C(=O)N[C@@H](CCC(N)=O)C(=O)N[C@@H](CCCNC(=N)N)C(=O)N[C@@H](C)C(=O)N[C@@H](C)C(=O)NC(C)(C)C(=O)N[C@@H](CCC(=O)O)C(=O)N[C@@H](Cc1ccccc1)C(=O)N[C@H](C(=O)N[C@@H](CCC(=O)O)C(=O)N[C@@H](Cc1c[nH]c2ccccc12)C(=O)N[C@@H](CC(C)C)C(=O)N[C@@H](CCCCN)C(=O)N[C@@H](CC(N)=O)C(=O)N[C@H](C(=O)NCC(=O)N1CCC[C@H]1C(=O)N[C@@H](CO)C(=O)N[C@@H](CO)C(=O)NCC(=O)N[C@@H](C)C(=O)N1CCC[C@H]1C(=O)N1CCC[C@H]1C(=O)N1CCC[C@H]1C(=O)N[C@@H](CO)C(N)=O)[C@@H](C)O)[C@@H](C)CC [SEQ ID NO: 21, Y-Aib-Q-G-T-F-T-S-D-L-S-I-Q-K(x53)-E-Q-R-A-A-Aib-E-F-I-E-W-L-K-N-T-G-P-S-S-G-A-P-P-P-S-NH2] (H-Y[Aib]QGTFTSDLSIQK(Palmitoyl)EQRAA[Aib]EFIEWLKNTGPSSGAPPPS-NH2)	0.037	0.189	0.674
CCCCCCCCCCCCCCCC(=O)N[C@@H](CCC(=O)NCCCC[C@H](NC(=O)[C@H](CCC(N)=O)NC(=O)[C@H](CCCCN)NC(=O)[C@H](CO)NC(=O)[C@H](CC(C)C)NC(=O)[C@H](CC(=O)O)NC(=O)[C@H](CO)NC(=O)[C@@H](NC(=O)[C@H](Cc1ccccc1)NC(=O)[C@@H](NC(=O)CNC(=O)[C@H](CCC(N)=O)NC(=O)C(C)(C)NC(=O)[C@@H](N)Cc1ccc(O)cc1)[C@@H](C)O)[C@@H](C)O)C(=O)N[C@@H](CC(=O)O)C(=O)N[C@@H](CO)C(=O)N[C@@H](CCCNC(=N)N)C(=O)N[C@@H](C)C(=O)N[C@@H](C)C(=O)N[C@@H](CCC(N)=O)C(=O)N[C@@H](CC(=O)O)C(=O)N[C@@H](Cc1ccccc1)C(=O)N[C@H](C(=O)N[C@@H](CCC(=O)O)C(=O)N[C@@H](Cc1c[nH]c2ccccc12)C(=O)N[C@@H](CC(C)C)C(=O)N[C@@H](CCCCN)C(=O)N[C@@H](C)C(=O)NCC(=O)NCC(=O)N1CCC[C@H]1C(=O)N[C@@H](CO)C(=O)N[C@@H](CO)C(=O)NCC(=O)N[C@@H](C)C(=O)N1CCC[C@H]1C(=O)N1CCC[C@H]1C(=O)N1CCC[C@H]1C(=O)N[C@@H](CO)C(N)=O)[C@@H](C)CC)C(=O)O [SEQ ID NO: 66, Y-Aib-Q-G-T-F-T-S-D-L-S-K-Q-K(yE-x53)-DSRAAQDFIEWLKAGGPSSGAPPPS-NH2] (H-Y[Aib]QGTFTSDLSKQK([γGlu-Palmitoyl])DSRAAQDFIEWLKAGGPSSGAPPPS-NH2)	0.0036	0.0826	0.0052
CCCCCCCCCCCCCCCC(=O)N[C@@H](CCC(=O)NCCCC[C@H](NC(=O)[C@H](CCC(N)=O)NC(=O)[C@@H](NC(=O)[C@H](CO)NC(=O)[C@H](CC(C)C)NC(=O)[C@H](CC(=O)O)NC(=O)[C@H](CO)NC(=O)[C@@H](NC(=O)[C@H](Cc1ccccc1)NC(=O)[C@@H](NC(=O)CNC(=O)[C@H](CCC(=O)O)NC(=O)C(C)(C)NC(=O)[C@@H](N)Cc1ccc(O)cc1)[C@@H](C)O)[C@@H](C)O)[C@@H](C)CC)C(=O)N[C@@H](CCC(=O)O)C(=O)N[C@@H](CCCCN)C(=O)N[C@@H](CCCNC(=N)N)C(=O)N[C@@H](C)C(=O)N[C@@H](C)C(=O)N[C@@H](Cc1c[nH]cn1)C(=O)N[C@@H](CCC(=O)O)C(=O)N[C@@H](Cc1ccccc1)C(=O)N[C@H](C(=O)N[C@@H](CCC(=O)O)C(=O)N[C@@H](Cc1c[nH]c2ccccc12)C(=O)N[C@@H](CC(C)C)C(=O)N[C@@H](CCCCN)C(=O)N[C@@H](CC(N)=O)C(=O)N[C@H](C(=O)NCC(=O)N1CCC[C@H]1C(=O)N[C@@H](CO)C(=O)N[C@@H](CO)C(=O)NCC(=O)N[C@@H](C)C(=O)N1CCC[C@H]1C(=O)N1CCC[C@H]1C(=O)N1CCC[C@H]1C(=O)N[C@@H](CO)C(N)=O)[C@@H](C)O)[C@@H](C)CC)C(=O)O [SEQ ID NO: 59, Y-Aib-E-G-T-F-T-S-D-L-S-I-Q-K(yE-x53)-EKRAAHEFIEWLKNTGPSSGAPPPS-NH2] (H-Y[Aib]EGTFTSDLSIQK([γGlu-Palmitoyl])EKRAAHEFIEWLKNTGPSSGAPPPS-NH2)	0.0075	0.0175	12.3
